Data on 1 compound can be found in article PMC4821601, “The Interactions of P-Glycoprotein with Antimalarial Drugs, Including Substrate Affinity, Inhibition and Regulation” (PLoS ONE, 2016).

Broadly, the inhibition is the drop in the measured response relative to a control, in per cent.

This series deals with T1, P-glycoprotein (P-gp) (Homo sapiens, UniProt P08183).
T1 construct: In-vitro Caco-2 cell monolayers were used here as a model for potential drug absorption related problems and P-gp mediated transport of drugs; endogenous in cells; host or cells: Caco-2 (human colon carcinoma, ATCC)
T1 sequence (P08183 whole entry): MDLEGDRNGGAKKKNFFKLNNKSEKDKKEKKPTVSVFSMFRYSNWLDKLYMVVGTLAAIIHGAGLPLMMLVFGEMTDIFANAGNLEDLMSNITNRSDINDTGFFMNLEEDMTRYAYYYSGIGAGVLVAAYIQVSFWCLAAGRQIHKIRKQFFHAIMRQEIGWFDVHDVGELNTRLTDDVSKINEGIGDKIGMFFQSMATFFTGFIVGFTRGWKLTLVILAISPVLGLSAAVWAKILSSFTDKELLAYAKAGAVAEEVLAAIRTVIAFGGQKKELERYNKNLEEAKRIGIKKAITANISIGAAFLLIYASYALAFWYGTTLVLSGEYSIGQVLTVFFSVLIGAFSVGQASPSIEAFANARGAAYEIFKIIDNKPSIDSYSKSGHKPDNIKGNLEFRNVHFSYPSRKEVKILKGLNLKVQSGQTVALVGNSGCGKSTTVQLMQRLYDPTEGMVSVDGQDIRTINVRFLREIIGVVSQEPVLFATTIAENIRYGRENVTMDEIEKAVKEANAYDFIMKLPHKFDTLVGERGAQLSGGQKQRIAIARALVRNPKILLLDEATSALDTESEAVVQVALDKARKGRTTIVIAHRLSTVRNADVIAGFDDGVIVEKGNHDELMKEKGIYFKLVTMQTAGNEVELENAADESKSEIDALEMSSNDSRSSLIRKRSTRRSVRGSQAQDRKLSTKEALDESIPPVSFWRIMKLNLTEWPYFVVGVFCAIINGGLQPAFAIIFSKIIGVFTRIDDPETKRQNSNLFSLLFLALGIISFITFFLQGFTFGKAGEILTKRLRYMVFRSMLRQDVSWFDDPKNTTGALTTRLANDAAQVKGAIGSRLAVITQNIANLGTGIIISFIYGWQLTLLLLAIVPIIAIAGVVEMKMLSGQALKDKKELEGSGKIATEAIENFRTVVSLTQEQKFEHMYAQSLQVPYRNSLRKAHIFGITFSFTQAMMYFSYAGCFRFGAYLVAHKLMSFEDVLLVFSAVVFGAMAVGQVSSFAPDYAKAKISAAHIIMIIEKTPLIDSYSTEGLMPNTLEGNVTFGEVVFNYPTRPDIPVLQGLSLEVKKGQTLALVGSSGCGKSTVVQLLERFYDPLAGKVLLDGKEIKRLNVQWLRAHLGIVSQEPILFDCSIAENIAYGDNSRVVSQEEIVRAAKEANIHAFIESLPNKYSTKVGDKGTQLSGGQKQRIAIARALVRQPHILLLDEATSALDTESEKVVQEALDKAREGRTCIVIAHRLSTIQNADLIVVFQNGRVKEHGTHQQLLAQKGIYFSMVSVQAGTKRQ
The series is described as follows: Bidirectional transport of rhodamine123 through Caco-2 monolayers co-incubated with antimalarials (P-gp inhibitory properties). The format is in vitro ADME. The conditions noted are these: at 100 μM. Here is the method:
The Caco-2 cells were seeded on 0.6 cm^2 […] Millipore PCF™ filter inserts at the cell density of 65,000 cells/cm^2 as done previously in the lab. Briefly, the cells were grown for 21–24 days to allow full maturation and formation of tight monolayers. The initial experiments were conducted in mid-40s passage cells and repeated in early 80s passage Caco-2 cells. The Trans epithelial electrical resistance (TEER) was measured immediately before and after the experiment using an epithelial voltage/ohm meter and an ENDOHM 12 chamber (World precision instruments, Sarasota, FL). TEER values were measured both before and after the study with readings above 300 Ω.cm^2 considered as acceptable for tight junctions. […] In order to maintain equivalent transport medium (HBSS/HBSS with inhibitor) level both outside and inside the chambers, 300 μL was used as medium in the apical chambers and 600 μL in the basolateral chambers. […] Drugs were co-incubated with MRCP, BCRP and ATP hydrolysis blockers to determine the involvement of other efflux mechanisms. Prior to the experiment, the transport medium, HBSS or HBSS with P-gp inhibitors were pre-incubated with the cells for 30 minutes. Following incubation, inserts were placed in new well plates and donor chamber is replaced with drug or drug with inhibitor and the receiver chamber with blank HBSS or HBSS with inhibitor. Transport medium was collected from the receiver chamber after stirring at time intervals of 30, 60, 90 and 120 minutes and was replaced with the same volume of fresh HBSS, or HBSS with inhibitor, when P-gp inhibitors were used in the study. At the end of the experiment 100 μL of medium was removed from the donor chamber in addition to medium collected from the receiver chamber during the study. The cells were then washed thoroughly in cold (4°C) PBS and cell membranes attached to the inserts were sonicated for 10 minutes in a sonicating water bath and centrifuged at 10,000 g for 10 minutes. Supernatant was frozen at -80°C until assayed. The Papp values of three well plates were determined using methods modified from Artursson’s group as described by Crowe and Lemaire.
CL.vol=Aa/{[Cd0×Vd−[Aa+(Ca×Vs)]−(Ac)×n/nfin]/Vd}
CL.vol = clearance volume (mL), n = time (min), Aa = amount in acceptor compartment at time n (pmols), Cd0 = concentration in donor compartment at time zero (nM), Vd = volume of the donor compartment (mL), Ca = concentration in acceptor compartment at the previous time point (nM), Vs = sample volume of previous time point (mL), Ac = amount of compound associated with the cells (pmol), Nfin = final time point (min). Papp = Apparent permeability (cm/sec) Rate of clearance (mL/min)=CL.vol / n Papp (cm/sec)=Rate of clearance / Surface area (cm^2)
The cleared volume was plotted against time and the slope of the regression line was divided by the surface area to obtain the Papp values. […] Mean Papp for Bas-Ap direction was divided by the Ap-Bas direction to obtain the efflux ratio and values above two were considered as drugs having true efflux transport.
(In general: Caco-2 monolayers are a common model of the intestinal barrier.)

Take `OC(c1cc(C(F)(F)F)nc2c(C(F)(F)F)cccc12)C1CCCCN1` (centres unmarked) [MQ, mefloquine]: the P-gp inhibitory properties result is recorded as “P-gp inhibitory properties”. For the same compound, for the setting “human, Caco-2 cell monolayers, probe rhodamine 123, read-out: inhibition of efflux driven transport”, the inhibition at 120 min, 100 µM is about 50%.
